Data from patent US20030065039A1, “Biologically active 1,3-bis-aromatic-prop-2-en-1-ones, 1,3-bis-aromatic-propan-1-ones, and 1,3-bis-aromatic-prop-2-yn-1-ones” (Statens Serum Institute, priority 1997, published 2003).
Values after ≈ are worked out from the molar mass of the structure shown.

Legend:
human lymphocytes = experiment: Lymphocyte Proliferation Assay; type: cell-based; conditions: Lymphocyte; PHA provoked proliferation of human lymphocytes; read-out: Lymphocytes IC50 ± SD
Protocol: Human blood mononuclear cells (BMNC) from heparinized blood were isolated by metrizoate sodium-Ficoll density gradient centrifugation, washed 3 times in RPMI 1640 medium supplemented with 5% FCS and with 400 IU of penicillin plus 400 μg/ml streptomycin. BMNC were resuspended in the medium and cultured in triplicate, 0.63×10^5/ml and 160 μl per vial, in round-bottom microtiter plates with 20 μl of various concentrations of the test compound. Immediately prior to incubation, optimum concentrations of the mitogen phytohaemagglutinin (PHA) and the antigen purified protein derivative of tuberculin (PPD) were added to the cultures in a volume of 20 μl. Unstimulated control cultures were always included. Cultures were incubated for 3 or 7 days. The degree of lymphocyte proliferation was estimated by ^3H-thymidine (1 μCi per well) addition 24 h before the cells were harvested on glass fiber filters by means of a harvesting machine), and ^3H-thymidine incorporation was measured in a liquid scintillation counter. For each set of triplicate values, the median was recorded. Unstimulated cultures were always included as controls.

Helicobacter pylori = experiment: Helicobacter species Assay (agar plate, MIC); type: cell-based
Protocol: (§1) 20 strains of Helicobacter pylori were used in an agar plate assay. The compounds were incorporated in the agar plates at different concentrations as described in the examples and were then inoculated with different strains of Helicobacter pylori followed by incubation in a microaerophilic atmosphere at 37° C. for 72 hours. The number of colony-forming units (CFU) were counted after the incubation period. The MIC values were determined as the minimal concentration required to inhibit growth of the bacteria.
(§2) Stock solutions were made at a concentration of 1 mg/ml by dissolving 1 mg of each compound in 100 μl DMSO (dimethylsulfoxide) followed by addition of 900 μl of heat-inactivated fetal claf serum (HFCS). These stock solutions were diluted with HFCS to make solutions having the following concentrations: 320 μg/ml, 160 μg/ml, 80 μg/ml, 40 μg/ml and 20 μg/ml. Dilution rows were made with 3 ml aliquots in vials containing the compounds in the following final test concentrations: 16 μg/ml, 8 μg/ml, 4 μg/ml, 2 μg/ml and 1 μg/ml. As control was used DMSO-HFCS containing an amount of DMSO equal to the amount of test compound in the solution with 320 μg/ml compound.
as §1, with “Bacteria: 20” for “20”, “concentrations” for “concentrations as described in the examples”, “and then they” for “and”, “were” for “were then”, “incubation at” for “incubation in a”, “C. in” for “C. for”
as §2, with “concentrations: 2560 μg/ml, 1280 μg/ml, 640 μg/ml,” for “concentrations:”, “160 µg/ml and” for “160 μg/ml,”, “80” for “80 μg/ml, 40 μg/ml and 20”, “concentrations: 128 μg/ml, 64 μg/ml, 32 μg/ml, 12” for “concentrations: 16”, “8” for “8 μg/ml, 4 μg/ml, 2”, “and 4” for “and 1”
Bacteria: 20 strains of Helicobacter pylori were used in an agar plate assay. The same method as described above under Experiment A was employed and MIC values were determined.

Leishmania promastigotes = Leishmania promastigotes Assay; type: cell-based; conditions: Leishmania; promastigotes, 3H-thymidine uptake; read-out: Leishmania IC50 ± SD
Protocol: A WHO reference vaccine strain of L. major originally isolated from a patient in Iran and a Kenyan strain of L. donovani (MHOM(/KE/85/NLB 274) were cultured in medium 199 containing 0.02 mg/ml gentamycin, 25 mM Hepes, 4 mM L-glutamine, and 20% heat inactivated fetal calf serum (FCS). Incubation was carried out at 26° C. Promastigotes were harvested on day 3 and 6 of the culture and used for the parasite growth inhibition.
The effect of the test compounds on promastigotes was assessed by a method similar to the one described by Pearson et al., by incubating promastigotes (3×10^6/ml) at 26° C. for 2 hrs in the presence of a given compound or the medium alone in 96 wells flat bottom microtiter plates. Following incubation, 100 μCi of 3H-thymidine was added to each well and further incubated for 18 hrs. Promastigotes were then harvested on filter paper by means of a cell harvester, extensively washed with distilled water and counted in a scintillation counter. The promastigotes were also counted microscopically and their flagellar motility was assessed.

Plasmodium falciparum = Plasmodium falciparum Assay; type: cell-based; conditions: Plasmodium falciparum; 3-H-hypoxanthine incorporation, 48 hours; read-out: Plasmodium IC50 ± SD
Protocol: The experiments in which compounds were tested for their ability to inhibit parasite growth were performed by a modification of the method originally described by Jensen et al. (1982). 50 μl of parasitized erythrocytes (parasitemia approximately 1%) in a concentration of 5×10^8/ml and 50 μl of RPMI medium containing different concentrations of the test compound was added to each well of a 96 well flat-bottomed microtiter plate. The cultures were then incubated for 48 hours, 24 hours before termination of the culture adding 20 μl of 3-H-hypoxanthine (40 uCi/ml) was added to each well. The cultures were then harvested onto glass fiber filters using a Skatron cell harvester, and the incorporation of 3-H-hypoxanthine into the DNA of dividing parasites was determined by liquid scintillation spectrometry. Control cultures with uninfected erythrocytes and infected erythrocytes in RPMI medium without test compounds were always performed in parallel to the test cultures. In some experiments thin smears of parasite cultures were stained by Giemsa and examined under microscope (×1000). The test compounds described above, were diluted in RPMI medium immediately before use. In the experiments, chloroquine phosphate was used as a positive control as a drug known to inhibit parasite growth.

| Structure (SMILES) | melting point [°C] | IC50 (human lymphocytes) [µM] | MIC (Helicobacter pylori; Helicobacter pylori, 20 strains of H. pylori, agar plate, 72 hours, read-out: MIC) [µg/mL] | strains of Helicobacter pylori inhibited (Helicobacter pylori; at a concentration of 16 μg/ml, 20 strains) | No. strains inhibited/No. strains tested (Helicobacter pylori; at the MIC of the same line) | IC50 (Leishmania promastigotes) [µM] | IC50 (Plasmodium falciparum) [µM] |
| --- | --- | --- | --- | --- | --- | --- | --- |
| COc1ccc(C(=O)/C=C/c2ccccc2[N+](=O)[O-])c(OC)c1OC [PH98, 2-nitro-2′,3′,4′-trimethoxychalcone] | 107.1 to 108 | 7 ± 0.6 | 16 (≈ 46.6 µM) | 4 out of 20 | 6/20 | 5.9 ± 0.4 | 9.3 |
| COc1ccc(C(=O)/C=C/c2cccc(N(C)C)c2)c(OC)c1OC [3-N(CH3)2-2′,3′,4′-OCH3, 3-dimethylamino-2′,3′,4′-trimethoxychalcone] | 87.2 to 87.9 | 26 ± 1 | – | – | – | 20 ± 3 | 12 |
| COc1ccc(C(=O)/C=C/c2ccc(C#N)cc2)c(OC)c1OC [4-CN-2′,3′,4′-OCH3, 4-cyano-2′,3′,4′-trimethoxychalcone] | 131.7 to 133 | 5.4 ± 0.3 | – | – | – | 8.6 ± 0.9 | 7.6 |
| O=C(/C=C/c1ccc(Oc2ccccc2)cc1)c1ccc(C2CCCCC2)cc1 [4′-cC6H11-4-OC6H5, 4-phenoxy-4′-cyclohexylchalcone] | 160.9 to 161.1 | – | – | – | – | – | 200 |
| COc1cc(/C=C/C(=O)c2cccc(N(C)C)c2)cc(OC)c1 [3′-N(CH3)2-3,5-OCH3, 3,5-dimethoxy-3′-dimethylaminochalcone] | 81.8 to 82.6 | 5 ± 0.2 | – | – | – | 5.8 ± 0.7 | 29 |
| COc1cc(/C=C/C(=O)c2ccccc2[N+](=O)[O-])cc(OC)c1 [2′-NO2-3,5-OCH3, 3,5-dimethoxy-2′-nitrochalcone] | 98.4 to 98.9 | 3.7 ± 0.2 | – | – | – | 3.4 ± 0.5 | 7.4 |
| CCCCOc1ccccc1/C=C/C(=O)c1ccc(OC)c(OC)c1OC [2-OC4H9-2′,3′,4′-OCH3, 2-butoxy-2′,3′,4′-trimethoxychalcone] | 129.4 to 130.2 | 52 ± 3 | – | – | – | 26 ± 1 | 7.8 |
| COc1cc(/C=C/C(=O)c2ccccc2N(C)C)cc(OC)c1 [2′-N(CH3)2-3,5-OCH3, 3,5-dimethoxy-2′-dimethylaminochalcone] | 159.8 to 160.5 | 5.7 ± 0.3 | – | – | – | 7.3 ± 1 | 13 |
| CCCCOc1ccccc1C(=O)/C=C/c1cc(OC)cc(OC)c1 [2′-OC4H9-3,5-OCH3, 3,5-dimethoxy-2′-butoxychalcone] | 69.5 to 70.1 | 13 ± 1 | – | – | – | 7.2 ± 1.2 | 25 |
| COc1cc(/C=C/C(=O)c2ccccc2O)cc(OC)c1 [2′-OH-3,5-OCH3, 3,5-dimethoxy-2′-hydroxychalcone] | 110.2 to 110.9 | 8.1 ± 0.8 | – | – | – | 3.8 ± 0.9 | 20 |
| COc1cccc(C(=O)/C=C/c2ccc(OC)cc2OC)c1 [3′,2,4-OCH3, 2,4,3′-trimethoxychalcone] | 75.6 to 78.9 | 42 ± 2 | – | – | – | 18 ± 3 | – |
| COc1cc(/C=C/C(=O)c2cccc(O)c2)cc(OC)c1 [3′-OH-3,5-OCH3, 3,5-dimethoxy-3′-hydroxychalcone] | 126.2 to 126.8 | 3.2 ± 0.4 | – | – | – | 3.7 ± 0.6 | 28 |
| O=C(/C=C/c1ccc(Oc2ccccc2)cc1)c1ccc(F)cc1 [4′-F-4-OC6H5, 4-phenoxy-4′-fluorochalcone] | 115.7 to 116 | 33 ± 2 | – | – | – | 42 ± 6 | – |
| COc1cc(/C=C/C(=O)c2ccc(OC)c(OC)c2OC)cc(OC)c1 [2′,3′,4′,3,5-OCH3, 3,5,2′,3′,4′-pentamethoxychalcone] | 111.6 to 112.5 | 8.7 ± 0.5 | – | – | – | 8.3 ± 0.9 | – |
| COc1ccc(C(=O)/C=C/c2cccc([N+](=O)[O-])c2)c(OC)c1OC [3-NO2-2′,3′,4′-OCH3, 3-nitro-2′,3′,4′-trimethoxychalcone] | 130.1 to 130.7 | 36 ± 2 | – | – | – | 17 ± 2 | 5.5 |
| COc1ccc(C(=O)/C=C/c2ccccc2F)c(OC)c1OC [2-F-2′,3′,4′-OCH3, 2-fluoro-2′,3′,4′-trimethoxychalcone] | 75 to 75.8 | 11 ± 1 | – | – | – | 15 ± 1 | – |
| COc1ccc(C(=O)/C=C/c2ccccc2O)c(OC)c1OC [2-OH-2′,3′,4′,-OCH3, 2-hydroxy-2′,3′,4′-trimethoxychalcone] | 122.6 to 123 | 9 ± 0.7 | – | – | – | 9.3 ± 1 | 10 |
